PubChem BioAssay (NCI)
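Grown in 96-well plates, cells were treated for 48 hours with each compound at five concentrations. Insufficient inhibition: endpoint recorded as highest concentration tested. The concentration for 50% growth inhibition is given as GI50. TGI: total growth inhibition.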

Key:
Experiment in all cases: NCI tumour cell line growth inhibition, 48 h
DU-145 prostate = test system: DU-145 prostate
SR leukemia = test system: SR leukemia
SF-295 CNS = test system: SF-295 CNS
BT-549 breast = test system: BT-549 breast
SN12C renal = test system: SN12C renal
CCRF-CEM leukemia = test system: CCRF-CEM leukemia
K-562 leukemia = test system: K-562 leukemia
A549 NSCLC = test system: A549 NSCLC
LOX IMVI melanoma = test system: LOX IMVI melanoma
MOLT-4 leukemia = test system: MOLT-4 leukemia
IGROV1 ovarian = test system: IGROV1 ovarian
NCI-H226 lung = test system: NCI-H226 lung
NCI-H23 lung = test system: NCI-H23 lung
HCC-2998 colon = test system: HCC-2998 colon
HT29 colon = test system: HT29 colon
UACC-257 melanoma = test system: UACC-257 melanoma
A498 renal = test system: A498 renal
SW-620 colon = test system: SW-620 colon
HCT-116 colon = test system: HCT-116 colon
NCI-H522 lung = test system: NCI-H522 lung
CAKI-1 renal = test system: CAKI-1 renal
HS 578T breast = test system: HS 578T breast
OVCAR-5 ovarian = test system: OVCAR-5 ovarian
MCF7 breast = test system: MCF7 breast
SF-268 CNS = test system: SF-268 CNS
PC-3 prostate = test system: PC-3 prostate
NCI/ADR-RES ovarian = test system: NCI/ADR-RES ovarian
786-0 renal = test system: 786-0 renal
SF-539 CNS = test system: SF-539 CNS
KM12 colon = test system: KM12 colon
TK-10 renal = test system: TK-10 renal
T-47D breast = test system: T-47D breast
MALME-3M melanoma = test system: MALME-3M melanoma
OVCAR-4 ovarian = test system: OVCAR-4 ovarian
HL-60(TB) leukemia = test system: HL-60(TB) leukemia
COLO 205 colon = test system: COLO 205 colon
MDA-MB-435 = test system: MDA-MB-435
SK-MEL-2 melanoma = test system: SK-MEL-2 melanoma
RPMI-8226 leukemia = test system: RPMI-8226 leukemia
UO-31 renal = test system: UO-31 renal
SK-MEL-28 melanoma = test system: SK-MEL-28 melanoma
SNB-19 CNS = test system: SNB-19 CNS
HOP-92 NSCLC = test system: HOP-92 NSCLC
EKVX NSCLC = test system: EKVX NSCLC
SK-OV-3 ovarian = test system: SK-OV-3 ovarian
HCT-15 colon = test system: HCT-15 colon
NCI-H460 lung = test system: NCI-H460 lung
OVCAR-3 ovarian = test system: OVCAR-3 ovarian
ACHN renal = test system: ACHN renal
OVCAR-8 ovarian = test system: OVCAR-8 ovarian
HOP-62 NSCLC = test system: HOP-62 NSCLC
SNB-75 CNS = test system: SNB-75 CNS
MDA-MB-231 breast = test system: MDA-MB-231 breast
UACC-62 melanoma = test system: UACC-62 melanoma
RXF 393 renal = test system: RXF 393 renal
SK-MEL-5 melanoma = test system: SK-MEL-5 melanoma
U251 CNS = test system: U251 CNS

Compound: N=C(N)c1ccc(-c2ccc(-c3ccccc3)s2)cc1F
- GI50 (DU-145 prostate): 1.13 µM
- TGI (DU-145 prostate): 2.38 µM

Compound: N=C(N)c1ccc(-c2ccc(-c3ccc(F)cc3)s2)cc1
- GI50 (DU-145 prostate): 1.63 µM
- TGI (DU-145 prostate): 2.98 µM
- GI50 (SR leukemia): 0.307 µM
- TGI (SR leukemia): > 100 µM

Compound: CC(CN=C(CC(=O)c1ccc(Br)cc1)c1ccccc1)N=C(CC(=O)c1ccc(Br)cc1)c1ccccc1 (configuration not stated)
- GI50 (SF-295 CNS): 29.2 µM
- TGI (SF-295 CNS): > 100 µM
- GI50 (BT-549 breast): 42.1 µM
- TGI (BT-549 breast): > 100 µM
- GI50 (SN12C renal): 64.1 µM
- TGI (SN12C renal): > 100 µM
- GI50 (CCRF-CEM leukemia): 20.1 µM
- TGI (CCRF-CEM leukemia): > 100 µM
- GI50 (K-562 leukemia): > 100 µM
- TGI (K-562 leukemia): > 100 µM
- GI50 (A549 NSCLC): 7.6 µM
- TGI (A549 NSCLC): > 100 µM
- GI50 (LOX IMVI melanoma): 66.1 µM
- TGI (LOX IMVI melanoma): > 100 µM
- GI50 (MOLT-4 leukemia): 7.95 µM
- TGI (MOLT-4 leukemia): > 100 µM
- GI50 (IGROV1 ovarian): 3.37 µM
- TGI (IGROV1 ovarian): > 100 µM
- GI50 (NCI-H226 lung): 67.3 µM
- TGI (NCI-H226 lung): > 100 µM
- GI50 (NCI-H23 lung): 8.9 µM
- TGI (NCI-H23 lung): > 100 µM
- GI50 (DU-145 prostate): 64.4 µM
- TGI (DU-145 prostate): > 100 µM
- GI50 (HCC-2998 colon): 99.1 µM
- TGI (HCC-2998 colon): > 100 µM
- GI50 (HT29 colon): 7.7 µM
- TGI (HT29 colon): > 100 µM
- GI50 (UACC-257 melanoma): 7.77 µM
- TGI (UACC-257 melanoma): > 100 µM
- GI50 (A498 renal): 38.8 µM
- TGI (A498 renal): > 100 µM
- GI50 (SW-620 colon): > 100 µM
- TGI (SW-620 colon): > 100 µM
- GI50 (HCT-116 colon): 2.75 µM
- TGI (HCT-116 colon): > 100 µM
- GI50 (NCI-H522 lung): 5.53 µM
- TGI (NCI-H522 lung): > 100 µM
- GI50 (CAKI-1 renal): 67.1 µM
- TGI (CAKI-1 renal): > 100 µM
- GI50 (HS 578T breast): > 100 µM
- TGI (HS 578T breast): > 100 µM
- GI50 (OVCAR-5 ovarian): > 100 µM
- TGI (OVCAR-5 ovarian): > 100 µM
- GI50 (MCF7 breast): 2.91 µM
- TGI (MCF7 breast): > 100 µM
- GI50 (SF-268 CNS): 29.9 µM
- TGI (SF-268 CNS): > 100 µM
- GI50 (PC-3 prostate): 29.4 µM
- TGI (PC-3 prostate): > 100 µM
- GI50 (NCI/ADR-RES ovarian): 14.2 µM
- TGI (NCI/ADR-RES ovarian): > 100 µM
- GI50 (786-0 renal): 4.2 µM
- TGI (786-0 renal): > 100 µM
- GI50 (SF-539 CNS): > 100 µM
- TGI (SF-539 CNS): > 100 µM
- GI50 (KM12 colon): 32.3 µM
- TGI (KM12 colon): > 100 µM
- GI50 (TK-10 renal): 7.56 µM
- TGI (TK-10 renal): > 100 µM
- GI50 (T-47D breast): 3.09 µM
- TGI (T-47D breast): > 100 µM
- GI50 (MALME-3M melanoma): 23.3 µM
- TGI (MALME-3M melanoma): > 100 µM
- GI50 (OVCAR-4 ovarian): 8.15 µM
- TGI (OVCAR-4 ovarian): > 100 µM
- GI50 (HL-60(TB) leukemia): 17.2 µM
- TGI (HL-60(TB) leukemia): 68 µM
- GI50 (COLO 205 colon): 7.58 µM
- TGI (COLO 205 colon): > 100 µM
- GI50 (MDA-MB-435): 41.8 µM
- TGI (MDA-MB-435): > 100 µM
- GI50 (SK-MEL-2 melanoma): 3.48 µM
- TGI (SK-MEL-2 melanoma): > 100 µM
- GI50 (RPMI-8226 leukemia): 4.37 µM
- TGI (RPMI-8226 leukemia): 38.6 µM
- GI50 (UO-31 renal): 1.66 µM
- TGI (UO-31 renal): > 100 µM
- GI50 (SK-MEL-28 melanoma): > 100 µM
- TGI (SK-MEL-28 melanoma): > 100 µM
- GI50 (SNB-19 CNS): > 100 µM
- TGI (SNB-19 CNS): > 100 µM
- GI50 (HOP-92 NSCLC): 11.5 µM
- TGI (HOP-92 NSCLC): 78.8 µM
- GI50 (EKVX NSCLC): 21 µM
- TGI (EKVX NSCLC): > 100 µM
- GI50 (SK-OV-3 ovarian): 9.05 µM
- TGI (SK-OV-3 ovarian): > 100 µM
- GI50 (HCT-15 colon): 43.6 µM
- TGI (HCT-15 colon): > 100 µM
- GI50 (NCI-H460 lung): 5.38 µM
- TGI (NCI-H460 lung): > 100 µM
- TGI (OVCAR-3 ovarian): 14.7 µM
- GI50 (ACHN renal): 48 µM
- TGI (ACHN renal): > 100 µM
- GI50 (OVCAR-8 ovarian): 34.6 µM
- TGI (OVCAR-8 ovarian): > 100 µM
- GI50 (HOP-62 NSCLC): > 100 µM
- TGI (HOP-62 NSCLC): > 100 µM
- GI50 (SNB-75 CNS): > 100 µM
- TGI (SNB-75 CNS): > 100 µM
- GI50 (MDA-MB-231 breast): > 100 µM
- TGI (MDA-MB-231 breast): > 100 µM
- GI50 (UACC-62 melanoma): 32 µM
- TGI (UACC-62 melanoma): > 100 µM
- GI50 (RXF 393 renal): 5.59 µM
- TGI (RXF 393 renal): > 100 µM
- GI50 (SK-MEL-5 melanoma): 2.18 µM
- TGI (SK-MEL-5 melanoma): 8.9 µM
- GI50 (U251 CNS): > 100 µM
- TGI (U251 CNS): > 100 µM
